Assay results as given in patent publication US8969325B2, “TRPV1 antagonists” (AbbVie Inc., priority 2011, dated 2015).
pIC50: −log10 of the molar value.

Tests used:
[1] = system: rats; assay: Rat acute capsaicin-induced flinching behavior; format: in vivo; conditions: 1 h, oral dose given as 100 nmol/kg, capsaicin 2.5 μg into hind paw one hour after compound, five minute observation, relative to control-treated animals, read-out: % effect (percent reduction in the number of flinching behaviors)
Description: Rats were placed in individual observation cages. Following an acclimation period of 30 minutes, selected compounds were administered orally at a dose of 100 nmol/kg in a vehicle (10% ethanol/20% Tween 80/70% polyethylene glycol-400) at a volume of 2 mL/kg. One hour after administration of the compound, 2.5 μg of capsaicin in a 10 μL solution of 10% ethanol/90% hydroxypropyl-β-cyclodextrin was injected subcutaneously into the dorsal aspect of the right hind paw. The observation cage was then suspended above mirrors in order to facilitate observation. […] The number of flinching behaviors of the injured paw was recorded during the five minute observation period (Gilchrist, H. D.; Allard, B. L.; Simone, D. A.; Enhanced withdrawal responses to heat and mechanical stimuli following intraplantar injection of capsaicin in rats. Pain, 1996, 67, 179-188). The percent reduction in the number of flinching behaviors produced from oral administration of the test compounds relative to control-treated animals (% effect) is reported in Table 2.

[2] = molecular target: T1, human TRPV1 (Homo sapiens (Human), UniProt Q8NER1); assay: Capsaicin Activation Assay (intracellular Ca2+, FLIPR); format: cell-based; conditions: recombinant HEK293 cells expressing hTRPV1, 50 nM capsaicin
In short: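 Stably transfected HEK293 cells expressing human TRPV1 cDNA, plated the day before in poly-D-lysine plates. Compounds serially diluted from 10 mM DMSO stocks; intracellular Ca2+ fluorescence read on FLIPR at 1 to 5 second intervals.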

[3] = molecular target: T1, human TRPV1; assay: Acid Activation Assay (pH 5.0, intracellular Ca2+, FLIPR); format: cell-based; conditions: percentage of the maximal pH 5.0-induced response remaining; recombinant HEK293 hTRPV1 cells; maximum concentration tested 37.5 μM
In short: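 HEK293 cells stably expressing recombinant hTRPV1, loaded with Calcium-4 dye 90-120 min at 25° C. Compounds added over a 12-point half-log range (top 37.5 μM), then pH 5.0 DPBS/MES challenge after 3 min; FLIPR peak fluorescence over baseline given as % of maximal pH 5.0 response.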

[4] = system: rats; assay: Sodium iodoacetate-induced knee joint osteoarthritic pain model (hind limb grip force); format: in vivo; conditions: rat, po, single acute dose, 1 hour after administration, 20 days after sodium iodoacetate, read-out: % effect (% return to normalcy of hind limb grip force)
Description: Unilateral knee joint osteoarthritis was induced in the rats by a single intra-articular (i.a.) injection of sodium iodoacetate (3 mg in 0.05 mL sterile isotonic saline) into the right knee joint cavity under light isoflurane anesthesia using a 26 G needle. […] Pain behavioral assessment of hind limb grip force was conducted by recording the maximum compressive force exerted on the hind limb strain gauge setup, in a commercially available grip force measurement system (Columbus Instruments, Columbus, Ohio). The grip force data was converted to a maximum hindlimb cumulative compressive force (CFmax) (gram force)/kg body weight for each animal. The analgesic effects of test compounds were determined 20 days following the i.a. injection of sodium iodoacetate. The vehicle control group for each compound being tested was assigned 0% whereas the age matched naïve group was assigned as being 100% (normal). The % effect for each dose group was then expressed as % return to normalcy compared to the naïve group. Test compounds were administered orally in 10% ethanol/20% Tween 80/70% polyethylene glycol-400 vehicle at a volume of 2 mL/kg. The assessment of the analgesic effects of test compounds was made 1 hour following oral administration. The assessment of the analgesic effects of test compounds can be made following a single dose or following repeated administration wherein the frequency of dosing is 1 to 2 times daily. The duration of such repeated daily dosing may last for any time greater than one day. A typical duration of repeated daily dosing is about 5 days to about 12 days.

[5] = system: rats; assay: Rat tail immersion assay of noxious thermosensation; format: in vivo; conditions: morphine 6 mg/kg i.p. in saline, 55° C. water bath, relative to vehicle control
Description: Compounds were tested for their effects on noxious thermosensation using the tail immersion assay. Testing was performed one hour following oral administration of 100 μmol/kg of the compound in 10% ethanol/20% Tween-80/70% PEG-400 (2 mL/kg). Mophine (6 mg/kg) was administered interperitoneally (i.p.) using saline (2 mL/kg) as the vehicle. For testing, a circulating water bath was heated to 55° C. Thirty to sixty minutes post dosing, the rats were handled for a few seconds to calm them down and then cupped with their back against the testers hand at a slight angle with head facing away from tester. With rat in one hand and a 0.01 second stopwatch in the other hand, the tail was quickly immersed 6-8 cm in water bath or to a distance leaving 2-3 cm of tail out of water. The timer was started simultaneously. When the rat flinched or attempted withdrawal, timer was immediately stopped and the rat's tail was quickly removed from water bath. This response latency (in seconds) was recorded. Process was repeated 3 times with 3-4 minutes between readings for a final average.
For a given compound, a percent increase in the average response latency (in seconds) for tail withdrawal relative to a vehicle control was determined % increase=[(tc−tv)/tv]×100% […]
Table 1 reports the % increase in tail withdrawal latency measured for the compounds tested. […]

T1 sequence (Q8NER1 whole entry): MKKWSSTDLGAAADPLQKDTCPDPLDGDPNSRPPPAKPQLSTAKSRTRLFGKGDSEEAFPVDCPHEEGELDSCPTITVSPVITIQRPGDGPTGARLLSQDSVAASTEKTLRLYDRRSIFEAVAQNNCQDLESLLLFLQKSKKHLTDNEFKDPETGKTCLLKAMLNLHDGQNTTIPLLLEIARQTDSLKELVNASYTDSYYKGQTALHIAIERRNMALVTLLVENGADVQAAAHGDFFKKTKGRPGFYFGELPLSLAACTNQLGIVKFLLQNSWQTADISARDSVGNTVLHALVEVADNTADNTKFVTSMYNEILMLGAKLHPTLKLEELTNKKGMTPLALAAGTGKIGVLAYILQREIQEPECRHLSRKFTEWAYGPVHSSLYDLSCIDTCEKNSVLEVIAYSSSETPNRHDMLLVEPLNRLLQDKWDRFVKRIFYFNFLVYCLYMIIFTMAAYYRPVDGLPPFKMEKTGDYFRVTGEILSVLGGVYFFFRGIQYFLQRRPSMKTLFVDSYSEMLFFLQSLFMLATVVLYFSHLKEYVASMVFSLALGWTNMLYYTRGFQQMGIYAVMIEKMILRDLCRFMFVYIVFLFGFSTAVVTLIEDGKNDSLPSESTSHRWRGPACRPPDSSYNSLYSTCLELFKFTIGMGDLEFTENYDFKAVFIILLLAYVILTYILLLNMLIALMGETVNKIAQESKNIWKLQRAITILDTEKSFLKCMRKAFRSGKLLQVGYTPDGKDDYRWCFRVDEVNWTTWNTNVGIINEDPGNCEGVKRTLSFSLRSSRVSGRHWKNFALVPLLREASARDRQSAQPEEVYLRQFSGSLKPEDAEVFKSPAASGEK

Structure (SMILES) | inhibition in vivo at 0.1 µmol/kg [1] [%] | pIC50 [2] | human TRPV1 H^+ (max % remain) [3] [%] | inhibition in vivo at 13 mg/kg [4] [%] | inhibition in vivo at 10 mg/kg [4] [%] | % Increase in tail withdrawal latency [5]
CN1Cc2ccc(NC(=O)N[C@@H]3CCc4cc(Cl)ccc43)cc2NC1=O [Example 17, 1-[(1R)-5-chloro-2,3-dihydro-1H-inden-1-yl]-3-(3-methyl-2-oxo-1,2,3,4-tetrahydroquinazolin-7-yl)urea] | 83 | 7.15 | 54 | – | – | –
CN1Cc2ccc(NC(=O)N[C@@H]3C[C@](C)(C(F)(F)F)Oc4ccccc43)cc2NC1=O [Example 18, 1-(3-methyl-2-oxo-1,2,3,4-tetrahydroquinazolin-7-yl)-3-[(2R,4R)-2-methyl-2-(trifluoromethyl)-3,4-dihydro-2H-chromen-4-yl]urea] | 64 | 7.32 | 51 | 62 | – | –
Cn1c(=O)ccc2c(NC(=O)N[C@@H]3CC(C)(C)Oc4cc(F)ccc43)cccc21 [Example 19, 1-[(4R)-7-fluoro-2,2-dimethyl-3,4-dihydro-2H-chromen-4-yl]-3-(1-methyl-2-oxo-1,2-dihydroquinolin-5-yl)urea] | 90 | – | 38 | – | – | –
Cn1c(=O)ccc2c(NC(=O)N[C@@H]3CC(C)(C)Oc4ccc(F)cc43)cccc21 [Example 24, 1-[(4R)-6-fluoro-2,2-dimethyl-3,4-dihydro-2H-chromen-4-yl]-3-(1-methyl-2-oxo-1,2-dihydroquinolin-5-yl)urea] | 58 | 7.68 | 60 | – | – | –
Cn1c(=O)ccc2c(NC(=O)N[C@@H]3CC(CF)(CF)Oc4cc(F)ccc43)cccc21 [Example 27, 1-[(4R)-7-fluoro-2,2-bis(fluoromethyl)-3,4-dihydro-2H-chromen-4-yl]-3-(1-methyl-2-oxo-1,2-dihydroquinolin-5-yl)urea] | 33 | 7.68 | 42 | – | – | –
Cn1c(=O)ccc2c(NC(=O)N[C@@H]3C[C@](C)(C(F)F)Oc4ccccc43)cccc21 [Example 28, 1-[(2R,4R)-2-(difluoromethyl)-2-methyl-3,4-dihydro-2H-chromen-4-yl]-3-(1-methyl-2-oxo-1,2-dihydroquinolin-5-yl)urea] | 81 | 7.92 | 53 | – | – | –
CC1(C)C[C@@H](NC(=O)Nc2ccc3c(c2)NC(=O)CC3)c2ccc(F)c(F)c2O1 [Example 33, 1-[(4R)-7,8-difluoro-2,2-dimethyl-3,4-dihydro-2H-chromen-4-yl]-3-(2-oxo-1,2,3,4-tetrahydroquinolin-7-yl)urea] | 59 | 7.70 | 42 | – | 37 | –
CN1C(=O)CCc2ccc(NC(=O)N[C@@H]3CCc4cc(C(F)(F)F)ccc43)cc21 [Example 36, 1-(1-methyl-2-oxo-1,2,3,4-tetrahydroquinolin-7-yl)-3-[(1R)-5-(trifluoromethyl)-2,3-dihydro-1H-inden-1-yl]urea] | 60 | 7.47 | 66 | – | – | –
CN1C(=O)CCc2ccc(NC(=O)N[C@@H]3CCOc4cc(C(F)(F)F)ccc43)cc21 [Example 37, 1-(1-methyl-2-oxo-1,2,3,4-tetrahydroquinolin-7-yl)-3-[(4R)-7-(trifluoromethyl)-3,4-dihydro-2H-chromen-4-yl]urea] | 78 | 7.30 | 60 | 43 | – | –
CC1(C)C[C@@H](NC(=O)Nc2ccc3c(c2)NC(=O)CO3)c2ccc(F)cc2O1 [Example 38, 1-[(4R)-7-fluoro-2,2-dimethyl-3,4-dihydro-2H-chromen-4-yl]-3-(3-oxo-3,4-dihydro-2H-1,4-benzoxazin-6-yl)urea] | 69 | 7.25 | 92 | – | 63 | –
CC1(C)C[C@@H](NC(=O)Nc2ccc3c(c2)NC(=O)CC3)c2ccc(F)cc2O1 [Example 221, 1-[(4R)-7-fluoro-2,2-dimethyl-3,4-dihydro-2H-chromen-4-yl]-3-(2-oxo-1,2,3,4-tetrahydroquinolin-7-yl)urea] | 53 | 5.80 | 39 | – | – | –
C[C@]1(CF)C[C@@H](NC(=O)Nc2ccc3c(c2)NC(=O)CC3)c2ccc(Cl)cc2O1 [Example 241, 1-[(2R,4R)-7-chloro-2-(fluoromethyl)-2-methyl-3,4-dihydro-2H-chromen-4-yl]-3-(2-oxo-1,2,3,4-tetrahydroquinolin-7-yl)urea] | 53 | 6.89 | 54 | – | – | –
O=C1CCc2ccc(NC(=O)N[C@@H]3CCc4cc(Cl)ccc43)cc2N1 [Example 251, 1-[(1R)-5-chloro-2,3-dihydro-1H-inden-1-yl]-3-(2-oxo-1,2,3,4-tetrahydroquinolin-7-yl)urea] | – | 7.11 | 26 | – | 38 | –
C[C@]1(C(F)F)C[C@@H](NC(=O)Nc2ccc3c(c2)NC(=O)CO3)c2ccc(Cl)cc2O1 [Example 321, 1-[(2R,4R)-7-chloro-2-(difluoromethyl)-2-methyl-3,4-dihydro-2H-chromen-4-yl]-3-(3-oxo-3,4-dihydro-2H-1,4-benzoxazin-6-yl)urea] | – | 7.68 | 87 | – | 31 | –
O=C1COc2ccc(NC(=O)N[C@@H]3CC(CF)(CF)Oc4cc(C(F)(F)F)ccc43)cc2N1 [Example 324, 1-[(4R)-2,2-bis(fluoromethyl)-7-(trifluoromethyl)-3,4-dihydro-2H-chromen-4-yl]-3-(3-oxo-3,4-dihydro-2H-1,4-benzoxazin-6-yl)urea] | – | 7.72 | 96 | – | 67 | –
CN1CC[C@]23c4c5ccc(O)c4O[C@H]2[C@@H](O)C=C[C@H]3[C@H]1C5 [Morphine, morphine] | – | – | – | – | – | +++ (greater than or equal to 25% increase)
